Test results from patent US20180161314A1, “Methods for Treating Hyperuricemia and Related Diseases” (Ardea Biosciences, Inc., priority 2010, published 2018).

System: gout patients with hyperuricemia
Assay: Febuxostat alone and in combination with drug 1, open-label study in gout patients with hyperuricemia (Examples 23, 24)
Assay type: in vivo, human
Conditions: for Mean absolute sUA reduction / Mean sUA % change / Mean sUA level: ± SE
Method: Study Objectives • To measure the effect of febuxostat alone and in combination with drug 1 on serum urate concentrations. • To evaluate the safety and tolerability of drug 1 in combination with febuxostat.
The study is open-label in gout patients with hyperuricemia, involving 2 panels of ˜10-12 patients per panel. The panels may be enrolled simultaneously.
Panel 1 receives a once-daily dose of febuxostat 40 mg with ascending doses of drug 1. Panel 2 receives a once-daily dose of febuxostat 80 mg with ascending doses of drug 1.
• Day −14 to Day 28: colchicine prophylaxis; or • Day −7 to Day 28: colchicine prophylaxis (for patients not washing out from ULT) • Days 1-7: febuxostat 40 mg qd • Days 8-14: febuxostat 40 mg qd+drug 1 400 mg qd • Days 15-21: febuxostat 40 mg qd+drug 1 600 mg qd
• Day −14 to Day 28: colchicine prophylaxis; or • Day −7 to Day 28: colchicine prophylaxis (for patients not washing out from ULT) • Days 1-7: febuxostat 80 mg qd • Days 8-14: febuxostat 80 mg qd+drug 1 400 mg qd • Days 15-21: febuxostat 80 mg qd+drug 1 600 mg qd
Gout patients on a urate lowering therapy (ULT), have previously taken a ULT or who have never taken a ULT are eligible to participate. Screening procedures to determine patient eligibility are performed within approximately 21 days of the first dose of study drug (Day 1). Subjects currently on ULT wash-out for approximately 14 days before Day 1, and begin colchicine (Colcrys® 0.6 mg qd, URL Pharma) as prophylaxis for gout flares. During the washout period, subjects who have discontinued ULT may have their sUA re-tested (at least 7 days after washing out) to confirm eligibility. Subjects not on ULT begin colchicine administration at least 7 days prior to Day 1. […] Patients intolerant of colchicine during the screening period are considered screen failures and not enrolled. Prophylactic administration of colchicine continues for 7 days after the last dose of study medication.
Eligible patients report to the study center early morning on Days −1, 7, 14, and 21 (or the afternoon/evening the day before). Serial blood samples are collected on Days −1, 7, 14, and 21. 24-hour urine collection is obtained on Days −1, 7, 14, and 21. Spot urine assessments also obtained on Day −1.
Study medication is administered to each patient and taken orally every morning with approximately 240 mL of water, at approximately the same time of the morning every day, and approximately 30 minutes after finishing a full breakfast (approximately 650 Kcal and 35% fat); the breakfast is standardized on Days −1 to 21.
Inclusion Criteria • Patient is male or post-menopausal or surgically sterile female. • Patient is 18-80 years of age, inclusive. • Patient meets one or more criteria for the diagnosis of gout as per the American Rheumatism Association (ARA) Criteria for the Classification of Acute Arthritis of Primary Gout (Appendix C). • Patient sUA≥8 mg/dL at screening. • Patient willing and able to give informed consent and adhere to visit/protocol schedules • No clinically relevant abnormalities in blood pressure (BP), heart rate (HR), body temperature and respiratory rate as per Investigator's judgment.
Subject urate serum levels are recorded, and any safety concerns assessed (by adverse events, clinical laboratory test results, vital signs, 12-lead ECGs, and physical examinations). […] Urate serum concentrations are evaluated for treatment- and/or time-dependent changes relative to baseline (Day −1), and may be expressed both in standard units (mg/dL) and as changes from baseline (e.g., percent change, absolute change, maximal change, and time or day of maximal change).
Drug 1 was tested according to the clinical trial protocol described in Example 23.
Serum urate levels were measured and absolute and % reduction levels from baseline calculated. Mean levels, mean absolute reductions (mg/dL, all data SE) and % change results are presented in the table below and in FIGS. 10 and 11. […]

[1] = FBX 40 mg alone, FBX 40 mg + Drug 1 400 mg
[2] = FBX 40 mg qd alone days 1-7, FBX 40 mg + Drug 1 400 mg qd days 8-14
[3] = FBX 80 mg alone, FBX 80 mg + Drug 1 400 mg
[4] = FBX 80 mg qd alone days 1-7, FBX 80 mg + Drug 1 400 mg qd days 8-14

Structure (SMILES): Cc1nc(-c2ccc(OCC(C)C)c(C#N)c2)sc1C(=O)O [Febuxostat, 2-(3-Cyano-4-isobutoxyphenyl)-4-methyl-1,3-thiazole-5-carboxylic acid, reference compound]
- % Response rate for sUA <3 mg/dL [1]: 0%
- % Response rate for sUA <4 mg/dL [1]: 0%
- % Response rate for sUA <5 mg/dL [1]: 17%
- % Response rate for sUA <6 mg/dL [1]: 67%
- Mean absolute sUA reduction [2]: -3.2 ± 0.21 mg/dL
- Mean sUA % change [2]: −35.7 ± 2.0%
- Mean sUA level [2]: 5.6 ± 0.24 mg/dL
- % Response rate for sUA <3 mg/dL [3]: 0%
- % Response rate for sUA <4 mg/dL [3]: 0%
- % Response rate for sUA <5 mg/dL [3]: 22%
- % Response rate for sUA <6 mg/dL [3]: 56%
- Mean absolute sUA reduction [4]: -4.6 ± 0.51 mg/dL
- Mean sUA % change [4]: −44.2 ± 3.5%
- Mean sUA level [4]: 5.7 ± 0.29 mg/dL
